Assay results published in patent US20200361895A1, “NOVEL SULFONAMIDE CARBOXAMIDE COMPOUNDS” (Inflazome Limited, priority 2017, published 2020).
Structures can show the parent of a compound that is named as a salt.

biological target: NLRP3 (Homo sapiens, UniProt Q96P20); experiment: THP-1 cells pyroptosis assay (LPS + nigericin, resazurin readout; THP IC50); format: cell-based; design: Seed THP-1 cells (25,000 cells/well) containing 1.0 μg/ml LPS in 40 μl of RPMI medium; host or cells: THP-1 cells
Method: THP-1 cells (ATCC #TIB-202) were grown in RPMI containing L-glutamine (Gibco #11835) supplemented with 1 mM sodium pyruvate (Sigma #S8636) and penicillin (100 units/ml)/streptomycin (0.1 mg/ml) (Sigma #P4333) in 10% Fetal Bovine Serum (FBS) (Sigma #F0804). The cells were routinely passaged and grown to confluency (˜10^6 cells/ml). On the day of the experiment, THP-1 cells were harvested and resuspended into RPMI medium (without FBS). The cells were then counted and viability (>90%) checked by Trypan blue (Sigma #T8154). Appropriate dilutions were made to give a concentration of 625,000 cells/ml. To this diluted cell solution was added LPS (Sigma #L4524) to give a 1 μg/ml Final Assay Concentration (FAC). 40 μl of the final preparation was aliquoted into each well of a 96-well plate. The plate thus prepared was used for compound screening.
The following method step-by-step assay was followed for compound screening. • 1. Seed THP-1 cells (25,000 cells/well) containing 1.0 μg/ml LPS in 40 μl of RPMI medium (without FBS) in 96-well, black walled, clear bottom cell culture plates coated with poly-D-lysine (VWR #734-0317) • 2. Add 5 μcompound (8 points half-log dilution, with 10 μM top dose) or vehicle (DMSO 0.1% FAC) to the appropriate wells • 3. Incubate for 3 hrs at 37° C. and 5% CO2 • 4. Add 5 μnigericin (Sigma #N7143) (FAC 5 μM) to all wells • 5. Incubate for 1 hr at 37° C. and 5% CO2 • 6. At the end of the incubation period, spin plates at 300×g for 3 mins and remove supernatant • 7. Then add 50 μl of resazurin (Sigma #R7017) (FAC 100 μM resazurin in RPMI medium without FBS) and incubate plates for a further 1-2 hrs at 37° C. and 5% CO2 • 8. Plates were read in an Envision reader at Ex 560 nm and Em 590 nm • 9. IC50 data is fitted to a non-linear regression equation (log inhibitor vs response-variable slope 4-parameters)

Chain of NLRP3 (Q96P20 whole entry): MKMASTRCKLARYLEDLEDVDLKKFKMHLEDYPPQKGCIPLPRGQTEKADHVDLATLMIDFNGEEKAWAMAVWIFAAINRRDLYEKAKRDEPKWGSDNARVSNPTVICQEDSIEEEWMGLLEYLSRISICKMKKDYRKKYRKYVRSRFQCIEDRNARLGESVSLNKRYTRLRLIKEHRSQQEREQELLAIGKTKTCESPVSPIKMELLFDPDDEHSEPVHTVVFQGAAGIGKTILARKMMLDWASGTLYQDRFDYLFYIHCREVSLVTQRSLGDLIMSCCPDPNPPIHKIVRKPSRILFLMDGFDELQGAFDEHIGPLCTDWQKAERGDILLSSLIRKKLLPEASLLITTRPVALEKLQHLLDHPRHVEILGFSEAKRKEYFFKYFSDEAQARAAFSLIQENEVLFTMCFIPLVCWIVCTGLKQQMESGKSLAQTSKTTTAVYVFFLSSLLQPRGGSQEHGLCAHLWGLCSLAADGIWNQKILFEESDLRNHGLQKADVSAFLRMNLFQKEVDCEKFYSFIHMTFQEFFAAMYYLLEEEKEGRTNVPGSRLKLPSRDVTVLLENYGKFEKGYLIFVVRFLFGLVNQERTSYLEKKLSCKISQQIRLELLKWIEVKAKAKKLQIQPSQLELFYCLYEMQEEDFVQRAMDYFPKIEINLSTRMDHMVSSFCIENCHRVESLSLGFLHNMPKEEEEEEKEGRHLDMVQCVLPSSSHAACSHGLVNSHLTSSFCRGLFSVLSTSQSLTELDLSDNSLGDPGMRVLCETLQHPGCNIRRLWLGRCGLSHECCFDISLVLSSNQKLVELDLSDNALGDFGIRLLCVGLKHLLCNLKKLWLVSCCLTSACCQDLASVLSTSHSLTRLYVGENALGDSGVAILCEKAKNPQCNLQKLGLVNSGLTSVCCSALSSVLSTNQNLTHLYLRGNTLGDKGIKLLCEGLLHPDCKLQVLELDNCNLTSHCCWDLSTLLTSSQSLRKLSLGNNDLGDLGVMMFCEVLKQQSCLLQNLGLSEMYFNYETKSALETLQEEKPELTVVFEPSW

`COCCCS(=O)(=O)NC(=O)Nc1c(-c2ccncc2)cc(F)c2c1CCC2` [Example 157, N-((7-Fluoro-5-(pyridin-4-yl)-2,3-dihydro-1H-inden-4-yl)carbamoyl)-3-methoxypropane-1-sulfonamide] and `CCN1CC(S(=O)(=O)NC(=O)Nc2c(-c3ccncc3)cc(F)c3c2CCC3)C1` [Example 85, 1-Ethyl-N-((7-fluoro-5(pyridin-4-yl)-2,3-dihydro-1H-inden-4-yl)carbamoyl)azetidine-3-sulfonamide] cannot be ordered by IC50: no more than 5 µM for the first, no more than 1 µM for the second.

`CC(=O)Nc1cc(-c2ccc3c(c2NC(=O)NS(=O)(=O)c2ccn(C(C)C)n2)CCC3)ccn1` [Example 297, N-(4-(4-(3-((1-Isopropyl-1H-pyrazol-3-yl)sulfonyl)ureido)-2,3-dihydro-1H-inden-5-yl)pyridin-2-yl)acetamide, sodium salt] and `COc1cc(-c2ccc3c(c2NC(=O)NS(=O)(=O)c2ccn(C(C)C)n2)CCC3)cc(C)n1` [Example 238, 1-Isopropyl-N-((5-(2-methoxy-6-methylpyridin-4-yl)-2,3-dihydro-1H-inden-4-yl)carbamoyl)-1H-pyrazole-3-sulfonamide, sodium salt] cannot be ordered by IC50: no more than 1 µM for the first, no more than 5 µM for the second.

`COc1cc(-c2cc(F)cc(C(C)C)c2NC(=O)NS(=O)(=O)C2CN(C3CCC3)C2)ccn1` [Example 79, 1-Cyclobutyl-N-((4-fluoro-2-isopropyl-6-(2-methoxypyridin-4-yl)phenyl)carbamoyl)azetidine-3-sulfonamide] and `CC(C)c1cc(F)cc(-c2ccnc(C#N)c2)c1NC(=O)NS(=O)(=O)C1CN(C2CCC2)C1` [Example 78, N-((2-(2-Cyanopyridin-4-yl)-4-fluoro-6-isopropylphenyl)carbamoyl)-1-cyclobutylazetidine-3-sulfonamide] cannot be ordered by IC50: no more than 0.5 µM for the first, no more than 10 µM for the second.

`COc1ccc(-c2cc(F)cc(C(C)C)c2NC(=O)NS(=O)(=O)c2ccn(C(C)C)n2)cn1` [Example 19, N-((4-Fluoro-2-iso-propyl-6-(6-methoxypyridin-3-yl)phenyl)carbamoyl)-1-iso-propyl-1H-pyrazole-3-sulfonamide] and `Cc1cc(-c2cc(F)cc(C(C)C)c2NC(=O)NS(=O)(=O)c2ccn(C(C)C)n2)ccn1` [Example 13, N-((4-Fluoro-2-iso-propyl-6-(2-methylpyridin-4-yl)phenyl)carbamoyl)-1-iso-propyl-1H-pyrazole-3-sulfonamide, partial ammonium salt] cannot be ordered by IC50: no more than 1 µM for the first, no more than 0.5 µM for the second.

`CC(C)c1cc(F)cc(-c2cncnc2)c1NC(=O)NS(=O)(=O)c1cc(CN(C)C)n(C(C)C)n1` [Example 43, 5-((Dimethylamino)methyl)-N-((4-fluoro-2-isopropyl-6-(pyrimidin-5-yl)phenyl)carbamoyl)-1-isopropyl-1H-pyrazole-3-sulfonamide] and `CC(C)c1cc(F)cc(-c2cncnc2)c1NC(=O)NS(=O)(=O)c1cc(CN(C)C)n(C)n1` [Example 42, 5-((Dimethylamino)methyl)-N-((4-fluoro-2-isopropyl-6-(pyrimidin-5-yl)phenyl)carbamoyl)-1-methyl-1H-pyrazole-3-sulfonamide] cannot be ordered by IC50: no more than 5 µM for the first, no more than 5 µM for the second.

`Cc1ncccc1-c1cc(F)cc(C(C)C)c1NC(=O)NS(=O)(=O)c1ccn(C(C)C)n1` [Example 14, N-((4-Fluoro-2-iso-propyl-6-(2-methylpyridin-3-yl)phenyl)carbamoyl)-1-iso-propyl-1H-pyrazole-3-sulfonamide, partial ammonium salt] and `CC(C)c1cc(F)cc(-c2cccc(C#N)c2)c1NC(=O)NS(=O)(=O)c1ccn(C(C)C)n1` [Example 8, N-((3′-Cyano-5-fluoro-3-iso-propyl-[1,1′-biphenyl]-2-yl)carbamoyl)-1-iso-propyl-1H-pyrazole-3-sulfonamide, sodium salt] cannot be ordered by IC50: no more than 5 µM for the first, no more than 5 µM for the second.

`COc1cc(-c2cc(F)cc(C(C)C)c2NC(=O)NS(=O)(=O)C(C)c2ccccc2)ccn1` (centres unmarked) [Example 140, N-((4-Fluoro-2-isopropyl-6-(2-methoxypyridin-4-yl)phenyl)carbamoyl)-1-phenylethanesulfonamide] and `CC(C)c1cc(F)cc(-c2ccnc(C#N)c2)c1NC(=O)NS(=O)(=O)C(C)c1ccccc1` (centres unmarked) [Example 139, N-((2-(2-Cyanopyridin-4-yl)-4-fluoro-6-isopropylphenyl)carbamoyl)-1-phenylethanesulfonamide] cannot be ordered by IC50: no more than 5 µM for the first, no more than 5 µM for the second.

`COc1cc(-c2ccc3c(c2NC(=O)NS(=O)(=O)CC(C)C)CCC3)ccn1` [Example 133, N-((5-(2-Methoxypyridin-4-yl)-2,3-dihydro-1H-inden-4-yl)carbamoyl)-2-methylpropane-1-sulfonamide] and `COc1cc(-c2ccc3c(c2NC(=O)NS(=O)(=O)OC(C)C)CCC3)ccn1` [Example 256, Isopropyl (5-(2-methoxypyridin-4-yl)-2,3-dihydro-1H-inden-4-yl)carbamoylsulfamate, sodium salt] cannot be ordered by IC50: no more than 0.5 µM for the first, no more than 1 µM for the second.

`CC(c1ccccc1)S(=O)(=O)NC(=O)Nc1c(-c2ccncc2)cc(F)c2c1CCC2` (centres unmarked) [Example 142, N-((7-Fluoro-5-(pyridin-4-yl)-2,3-dihydro-1H-inden-4-yl)carbamoyl)-1-phenylethanesulfonamide] and `COc1cc(-c2ccc3c(c2NC(=O)NS(=O)(=O)C(C)c2ccccc2)CCC3)ccn1` (centres unmarked) [Example 141, N-((5-(2-Methoxypyridin-4-yl)-2,3-dihydro-1H-inden-4-yl)carbamoyl)-1-phenylethanesulfonamide] cannot be ordered by IC50: no more than 5 µM for the first, no more than 1 µM for the second.

`COCCCS(=O)(=O)NC(=O)Nc1c(-c2ccnc(OC)c2)cc(F)cc1C(C)C` [Example 155, N-((4-Fluoro-2-isopropyl-6-(2-methoxypyridin-4-yl)phenyl)carbamoyl)-3-methoxypropane-1-sulfonamide] and `COc1cc(-c2cc(F)cc(C(C)C)c2NC(=O)NS(=O)(=O)CC(C)C)ccn1` [Example 132, N-((4-Fluoro-2-isopropyl-6-(2-methoxypyridin-4-yl)phenyl)carbamoyl)-2-methylpropane-1-sulfonamide] cannot be ordered by IC50: no more than 0.5 µM for the first, no more than 1 µM for the second.

`CC(C)c1cc(F)cc(-c2ccnc(C#N)c2)c1NC(=O)NS(=O)(=O)c1nccnc1C(F)F` [Example 110, N-((2-(2-Cyanopyridin-4-yl)-4-fluoro-6-isopropylphenyl)carbamoyl)-3-(difluoromethyl)pyrazine-2-sulfonamide] and `COc1cc(-c2cc(F)cc(C(C)C)c2NC(=O)NS(=O)(=O)c2nccnc2C(F)F)ccn1` [Example 111, 3-(Difluoromethyl)-N-((4-fluoro-2-isopropyl-6-(2-methoxypyridin-4-yl)phenyl)carbamoyl)pyrazine-2-sulfonamide] cannot be ordered by IC50: no more than 10 µM for the first, no more than 5 µM for the second.

`Cn1cc(-c2ccc3c(c2NC(=O)NS(=O)(=O)c2ccn(C4CC4)n2)CCC3)ccc1=O` [Example 268, 1-Cyclopropyl-N-((5-(1-methyl-6-oxo-1,6-dihydropyridin-3-yl)-2,3-dihydro-1H-inden-4-yl)carbamoyl)-1H-pyrazole-3-sulfonamide] and `CC(C)n1ccc(S(=O)(=O)NC(=O)Nc2c(-c3ccnc4c3CCO4)ccc3c2CCC3)n1` [Example 283, N-((5-(2,3-Dihydrofuro[2,3-b]pyridin-4-yl)-2,3-dihydro-1H-inden-4-yl)carbamoyl)-1-isopropyl-1H-pyrazole-3-sulfonamide] cannot be ordered by IC50: no more than 5 µM for the first, no more than 5 µM for the second.

`CCN(CCCS(=O)(=O)NC(=O)Nc1c(-c2ccnc(OC)c2)ccc2c1CCC2)Cc1ccccc1` [Example 152, 3-(Benzyl(ethyl)amino)-N-((5-(2-methoxypyridin-4-yl)-2,3-dihydro-1H-inden-4-yl)carbamoyl)propane-1-sulfonamide] and `COc1cc(-c2ccc3c(c2NC(=O)NS(=O)(=O)CCc2ccccc2)CCC3)ccn1` [Example 137, N-((5-(2-Methoxypyridin-4-yl)-2,3-dihydro-1H-inden-4-yl)carbamoyl)-2-phenylethanesulfonamide] cannot be ordered by IC50: no more than 0.5 µM for the first, no more than 0.5 µM for the second.

`CCN1CCC(S(=O)(=O)NC(=O)Nc2c(-c3ccnc(C#N)c3)ccc3c2CCC3)CC1` [Example 99, N-((5-(2-Cyanopyridin-4-yl)-2,3-dihydro-1H-inden-4-yl)carbamoyl)-1-ethylpiperidine-4-sulfonamide, potassium salt] and `CC(C)c1cc(F)cc(-c2ccnc(C#N)c2)c1NC(=O)NS(=O)(=O)C1CN(C(C)C)C1` [Example 74, N-((2-(2-Cyanopyridin-4-yl)-4-fluoro-6-isopropylphenyl)carbamoyl)-1-isopropylazetidine-3-sulfonamide] cannot be ordered by IC50: no more than 10 µM for the first, no more than 10 µM for the second.

For `CC(C)c1cc(F)cc(-c2ccnc(C#N)c2)c1NC(=O)NS(=O)(=O)c1ccc(=O)n(C(C)C)c1` [Example 89, N-((2-(2-cyanopyridin-4-yl)-4-fluoro-6-isopropylphenyl)carbamoyl)-1-isopropyl-6-oxo-1,6-dihydropyridine-3-sulfonamide], the IC50 was no more than 0.5 µM.
